{
  "source": "patent US20240207253A1",
  "about": "“Inhibitors of CDR1 for Reversal of Azole Drug Resistance in Fungal Infections” (UNM RAINFOREST INNOVATIONS, priority 2021, published 2024)",
  "key": {"C. albicans strain 5674": {"test_system": "C. albicans strain 5674", "assay": "Adenylate kinase (AK) release assay on assay supernatant", "assay_type": "cell-based", "conditions": "caspofungin 50 ng/ml, positive control", "quoted_text": "In addition to the output from the dose-response assays, we included an experimental step designed to identify compounds with fungicidal potential. Specifically, the inventors used the assay supernatant to interrogate for the presence of adenylate kinase (AK), an enzyme that is released from the cells when the cell wall or plasma membrane integrity is compromised. Low-dose caspofungin (50 ng/ml), an echinocandin known for its antifungal property due to disruption of the cell wall, was used as a positive control."}, "[1]": {"test_system": "C. glabrata AR Bank #0314", "assay": "CLSI microbroth dilution checkerboard assay with fluconazole", "assay_type": "cell-based", "conditions": "Nakaseomyces glabratus; fluconazole alone", "protocol": "(§1) Overexpression of Cdr1p has been implicated in azole resistance in many fluconazole-resistant fungal pathogens. […] The inventors used the CLSI microbroth dilution method of antifungal susceptibility testing in a checkerboard assay format, where serial 2-fold dilutions of FLC (from 64 μg/ml) were tested in combination with serial 2-fold dilutions of a candidate hit compound (from 50 μg/ml). […] The data from three biological replicates was next used to assess synergy between each compound of interest and FLC. For these purposes, the inventors used the program SynScreen, which extrapolates non-linear fits of dose-response data to determine synergy using the Bliss independence and Loewe additivity analysis models. […] The Bliss Beta coefficient that the program calculates for all combinations further describes potential synergism (if >1), antagonism (if <1), or an additive effect (equal to 1).\n(§2) For the purposes of reporting the effect of the test compound on FLC potentiation, the inventors excluded from analyses rows of combinations where TPIML compound alone affects yeast growth. C. krusei are intrinsically resistant to azoles and is predominantly due to a significant reduction of inhibition of the target, cytochrome P450 lanosterol 14α-demethylase, though the role of increased expression of the CaCdr1p homolog in resistance has also been described."}, "[2]": {"test_system": "C. krusei reference strain, ATCC 6258", "assay": "CLSI microbroth dilution checkerboard assay with fluconazole", "assay_type": "cell-based", "conditions": "Pichia kudriavzevii, ATCC6258; fluconazole alone", "protocol": "as §1, §2"}, "[3]": {"test_system": "C. parapsilosis AR Bank #0337", "assay": "CLSI microbroth dilution checkerboard assay with fluconazole", "assay_type": "cell-based", "conditions": "Lodderomyces parapsilosis; fluconazole alone", "protocol": "as §1, §2"}, "Cdr1p-GFP": {"test_system": "Cdr1p-GFP", "assay": "Cdr1p-GFP whole cell fluorescence-based flow cytometry assay (primary screen and dose response)", "design": "species or system C. albicans", "conditions": "10 μM, positive control, isolate 5674 CDR1-GFP", "description": "Utilizing the novel approach of inhibition of CDR1 (Cdr1p) expression, initial experiments were directed to screening libraries of small molecules using a high-throughput whole cell fluorescence-based flow cytometry assay to identify agents that inhibit expression of CDR1-GFP in an azole-resistant C. albicans strain.\nEach sample in the scaffold ranking screen contains only mixtures of compounds with the shared core scaffold. All compounds in a specific mixture are represented in approximately equal molar concentrations. The inventors performed the screen using the C. albicans azole-resistant, clinical isolate 5674, which was modified to carry a CDR1 allele tagged with GFP-encoding sequence. Modulation of Cdr1p-GFP levels in response to scaffold mixtures was assessed relative to basal levels (Response Ratio), from which scaffolds were ranked. […] The inventors used tacrolimus at 10 μM concentration as positive control in all screening assays.\nThe assay readout, GFP fluorescence levels as detected by a flow cytometer, is directly related to the levels of Cdr1p of the cell. Thus, flow cytometry data from each screen provides direct evidence that Cdr1p is modulated by hit compounds. […] False-positive hits were identified in follow-up dose-response assays where the effect of serial dilutions of each compound on Cdr1p-GFP levels was assessed."}},
  "data": [
    {"smiles": "CC[C@H](C)C[C@H](C)CCCCCCCCC(=O)N[C@H]1C[C@@H](O)[C@@H](NCCN)NC(=O)[C@@H]2[C@@H](O)CCN2C(=O)[C@H]([C@H](O)CCN)NC(=O)[C@H]([C@H](O)[C@@H](O)c2ccc(O)cc2)NC(=O)[C@@H]2C[C@@H](O)CN2C(=O)[C@H]([C@@H](C)O)NC1=O", "note": "[caspofungin]", "values": [
      {"measurement": "AK fold-increase", "setting": "C. albicans strain 5674", "value": 27}
    ]},
    {"smiles": "OC(Cn1cncn1)(Cn1cncn1)c1ccc(F)cc1F", "note": "[fluconazole]", "values": [
      {"measurement": "MIC50", "setting": "[1]", "value": 64, "unit": "mg/L"},
      {"measurement": "MIC50", "setting": "[2]", "value": 8, "unit": "mg/L"},
      {"measurement": "MIC50", "setting": "[3]", "value": 64, "unit": "mg/L"}
    ]},
    {"smiles": "C=CC[C@@H]1/C=C(\\C)C[C@H](C)C[C@H](OC)[C@H]2O[C@@](O)(C(=O)C(=O)N3CCCC[C@H]3C(=O)O[C@H](/C(C)=C/[C@@H]3CC[C@@H](O)[C@H](OC)C3)[C@H](C)[C@@H](O)CC1=O)[C@H](C)C[C@@H]2OC", "note": "[tacrolimus]", "values": [
      {"measurement": "Response Ratio (Cdr1p-GFP levels relative to basal levels)", "setting": "Cdr1p-GFP", "value": 0.8}
    ]}
  ]
}
